These results are taken from patent publication US20060223849A1, “Benzazole derivatives, compositions, and methods of use as beta-secretase inhibitors” (priority 2005, published 2006).

For the test, the system named is HEK293 cells stably expressing wildtype human APP695 protein (HEK-APPwt cells). The test can be described thus: Aβ cell based assay (Aβ1-40 secretion, ELISA). The conditions noted are these: 1 hr room temperature then five-hour incubation at 37° C., Aβ1-40 ELISA, DAPT as 100% inhibition reference, read-out: EC50, reduction of Aβ1-40 secretion in the cell based assay. The procedure:
Aβ Cell Based Assay Procedure
In the following assay, the proteolytic activity of BACE in cells exposed to varying concentrations of a compound of interest is measured by observing the amount of Aβ1-40 secreted from HEK293 cells (Human Embryonic Kidney epithelial cell line) stably expressing either wildtype human APP695 protein (HEK-APPwt cells).
HEK-APPwt cells were grown in high glucose DMEM (Dulbecco's Modified Eagles Medium) with 4500 mg glucose/L,L-glutamine, NaHCO3, pyrdoxin HCl, 10 mM HEPES (4-(2-hydroxyethyl)-1-piperazineethanesulfonic acid) (pH 7.4), 0.1 mM NEAA (Non-essential Amino Acids) (GIBCO Cat#11140-050), 10% fetal bovine serum and 250 μg/ml hygromycin in T-225 flasks at 37° C. with CO2 and humidity control.
Test compounds were initially prepared in DMSO and diluted with DMEM media containing 2% FBS (Fetal bovine serum) and 0.05% Tween20. Ten standard compound solutions were prepared having a range of concentrations. The standard compound solutions were used to determine the EC50 of the test compound. The range of concentrations chosen may depend on the compound's predicted potency.
To prepare the cells for the assay, a flask containing HEK-APPwt cells were trypsinized briefly (1 mL trypsin), and once the cells detached, 4 mL of 10% FBS-DMEM was added to the flask. The detached cells were centrifuged at 900 rpm for 5 min to form a pellet.
The HEK-APPwt cell pellet was re-suspended with 10 mL DMEM media containing 2% FBS. 80 μL of the cell suspension was added to each well of a 96-well cell culture plate to give 100,000 cells/well. 10 μL of a standard compound solution was added to each well of the 96-well cell culture plate followed by 10 μL of Alamar blue solution. The cells were incubated at room temperature for 1 hr, followed by a five-hour incubation in the CO2 incubator at 37° C.
At the end of the incubation, the plates were removed from incubator, and the supernatant was collected. Aβ1-40 concentration in the medium was measured by using a commercial Aβ1-40 ELISA kit (IBL, Japan). Briefly, the ELISA plates were coated with anti-human Aβ35-40 mouse IgG monoclonal antibody. A horseradish peroxidase enzyme conjugated anti-human Aβ11-28 mouse IgG monoclone antibody was used for detection. The cell culture supernatant was diluted 1:4 fold with (EIA buffer+Protease inhibitor (buffer containing Protease Inhibitor (1 mL PI/30 mL buffer). A 100 μL aliquot of the diluted supernatant was added to each well of the ELISA plate and incubated for 6 hrs at 4° C. The ELISA plate was washed 8 times with phosphate buffered saline (PBS) containing 0.05% Tween 20.
A 100 μL of detection antibody was then added and incubated for 1 hour at 4° C. The plate was washed 8 times with PBS buffer containing 0.05% Tween 20 followed by addition of 100 μL of the substrate with the chromogen tetramethyl benzidine (TMB). The plate was incubated in the dark at room temperature for about 30 min and a stop solution (1N H2SO4) was added.
The intensity of the color developed was measured at 450 nm. The optical density at 450 nm (OD450) is proportional to the concentration of human Aβ1-40 secreted by the cell. As a reference, N—[N-(3,5-difluorophenacetyl-L-alanyl)]-S-phenylglycine t-butyl ester (DAPT, a γ-secretase inhibitor) was used to indicate 100% inhibition of BACE activity. Thus, the assay measures the ability of a compound of interest to reduce Aβ1-40 secretion. Compound potency was reported as the EC50 by calculating the percent inhibition at all concentration levels and the data were fit with non-linear curve fitting algorithm using in GraphPad Prism.
For orientation: In an ELISA, binding on a coated surface is turned into a signal by an enzyme label.
With `O=C(Nc1nc2c(C(=O)Nc3ncc[nH]3)cccc2[nH]1)c1cncc(-c2cccc(F)c2)c1` [Example 351, Ar = 5-(3-Fluoro-phenyl)-pyridine-3-yl], the 50% effective concentration (EC50) is no more than 2 µM.

`Cc1nc(NC(=O)c2cccc3[nH]c(NC(=O)c4cc5ccccc5cn4)nc23)[nH]c1C` [Example 193, Isoquinoline-3-carboxylic acid [4-(4,5-dimethyl-1H-imidazol-2-ylcarbamoyl)-1H-benzoimidazol-2-yl]-amide]: the EC50 is no more than 2 µM.

On to `CC(C)(C)C#Cc1cccc(C(=O)Nc2nc3c(C(=O)Nc4ncc[nH]4)cccc3[nH]2)n1` [Example 428, Ar = 6-(3,3-Dimethyl-but-1-ynyl)-pyridine-2-yl], for which the half-maximal effective concentration (EC50) is no more than 2 µM.

One may read the EC50 as the concentration that produces a half-maximal response.
